Measured values published in US20070128217A1 (priority 2003, published 2007).

How the values were obtained:
[1] = system: antibodies in sera from SARS patients (sera 1a, 1b, 2, 6, 37, 62, London, SARS-yellow, SARS-green); assay type: binding, human; parameters: Binding of serum 6 to linear peptides of protein X1 of SARS-CoV Urbani / Binding of serum 37 to linear peptides of protein X1 of SARS-CoV Urbani / Binding of serum 6 to looped/cyclic peptide (PEPSCAN-ELISA) / Binding of serum 37 to looped/cyclic peptide (PEPSCAN-ELISA) / Binding of serum 37 to looped/cyclic peptides of protein X1 of SARS-CoV Urbani / Binding of serum 6 to linear peptides of protein X2 / Binding of serum 37 to linear peptides of protein X2 / Binding of serum 37 to looped/cyclic peptides of protein X2 of SARS-CoV Urbani / Binding of serum 6 to linear peptides of protein M of SARS-CoV Urbani / Binding of serum 37 to linear peptides of protein M of SARS-CoV Urbani / Binding of serum 6 to looped/cyclic peptides of protein M of SARS-CoV Urbani / Binding of serum 37 to looped/cyclic peptides of protein M of SARS-CoV Urbani / Binding of serum 6 to linear peptides of protein X3 of SARS-CoV Urbani / Binding of serum 37 to linear peptides of protein X3 of SARS-CoV Urbani / Binding of serum 37 to looped/cyclic peptides of protein X3 of SARS-CoV Urbani / Binding of serum 6 to linear peptides of protein X4 of SARS-CoV Urbani / Binding of serum 37 to linear peptides of protein X4 of SARS-CoV Urbani / Binding of serum 37 to looped/cyclic peptides of protein X4 of SARS-CoV Urbani / Binding of serum 6 to linear peptides of protein X5 of SARS-CoV Urbani / Binding of serum 37 to linear peptides of protein X5 of SARS-CoV Urbani / Binding of serum 37 to looped/cyclic peptides of protein X5 of SARS-CoV Urbani / Binding of serum 6 to linear peptides of protein N of SARS-CoV Urbani / Binding of serum 37 to linear peptides of protein N of SARS-CoV Urbani / Binding of serum 6 to linear peptide (PEPSCAN-ELISA) / Binding of serum 1a to looped/cyclic peptides of protein N of SARS-CoV Urbani / Binding of serum 1b to looped/cyclic peptides of protein N of SARS-CoV Urbani / Binding of serum 2 to looped/cyclic peptides of protein N of SARS-CoV Urbani / Binding of serum 6 to looped/cyclic peptides of protein N of SARS-CoV Urbani / Binding of serum 37 to looped/cyclic peptides of protein N of SARS-CoV Urbani / Binding of serum 62 to looped/cyclic peptides of protein N of SARS-CoV Urbani / Binding of serum London to looped/cyclic peptides of protein N of SARS-CoV Urbani / Binding of serum SARS-green to looped/cyclic peptides of protein N of SARS-CoV Urbani: unit not given here
[2] = system: control sera (pooled serum of ten healthy LUMC hospital workers; commercial negative donor pooled serum from the Dutch bloodbank); assay type: binding, human; parameters: Binding of Control serum LUMC to linear peptides / Binding of Control serum Blood-bank to linear peptides / Binding of Control serum LUMC to looped peptides / Binding of Control Serum Blood-Bank to Looped peptides / Binding of Control serum LUMC to linear peptides of the protein M of SARS-CoV Urbani / Binding of Control serum Blood-bank to linear peptides of the protein M of SARS-CoV Urbani / Binding of Control serum LUMC to looped peptides of the protein M of SARS-CoV Urbani / Binding of Control Serum Blood-Bank to Looped peptides of the protein M of SARS-CoV Urbani: unit not given here
[3] = system: rabbit serum obtained by immunizing a rabbit with the SARS-CoV strain Frankfurt 1; assay type: binding; parameters: Binding of a rabbit serum to linear peptides / Binding of a rabbit serum to looped peptides / Rabbit serum linear peptides / Rabbit serum looped peptides / Binding of a rabbit serum to linear peptides of protein N of SARS-CoV Urbani (Rabbit serum linear peptides) / Binding of a rabbit serum to looped/cyclic peptides of protein N of SARS-CoV Urbani (Rabbit serum looped peptides): unit not given here

THITMTTVYHITVSQ
Binding of serum 1a to linear peptides of protein X2 [1]: 0.6 | Binding of serum 1a to looped/cyclic peptides of protein X2 of SARS-CoV Urbani [1]: 0.6 | Binding of serum 1b to linear peptides of protein X2 [1]: 0.5 | Binding of serum 1b to looped/cyclic peptides of protein X2 of SARS-CoV Urbani [1]: 0.6 | Binding of serum 2 to linear peptides of protein X2 [1]: 0.4 | Binding of serum 2 to looped/cyclic peptides of protein X2 of SARS-CoV Urbani [1]: 0.3 | Binding of serum 6 to linear peptides of protein X2 [1]: 0.6 | Binding of serum 6 to looped/cyclic peptides of protein X2 of SARS-CoV Urbani [1]: 0.2 | Binding of serum 37 to linear peptides of protein X2 [1]: 0.7 | Binding of serum 37 to looped/cyclic peptides of protein X2 of SARS-CoV Urbani [1]: 0.5 | Binding of serum 62 to linear peptides of protein X2 [1]: 0.4 | Binding of serum 62 to looped/cyclic peptides of protein X2 of SARS-CoV Urbani [1]: 0.6 | Binding of serum London to linear peptides of protein X2 [1]: 0.4 | Binding of serum London to looped/cyclic peptides of protein X2 of SARS-CoV Urbani [1]: 0.2 | Binding of serum SARS-green to linear peptides of protein X2 [1]: 0.4 | Binding of serum SARS-green to looped/cyclic peptides of protein X2 of SARS-CoV Urbani [1]: 0.3 | Binding of serum SARS-yellow to linear peptides of protein X2 [1]: 0.5 | Binding of serum SARS-yellow to looped/cyclic peptides of protein X2 of SARS-CoV Urbani [1]: 0.5 | Binding of Control Serum Blood-Bank to Looped peptides [2]: 0.6 | Binding of Control serum Blood-bank to linear peptides [2]: 0.3 | Binding of Control serum LUMC to linear peptides [2]: 0.8 | Binding of Control serum LUMC to looped peptides [2]: 0.7 | Binding of a rabbit serum to linear peptides [3]: 0.7 | Binding of a rabbit serum to looped peptides [3]: 0.4

TIVTRPLMESELVIG
Binding of serum 1a to linear peptides of protein M of SARS-CoV Urbani [1]: 0.8 | Binding of serum 1b to linear peptides of protein M of SARS-CoV Urbani [1]: 0.6 | Binding of serum 2 to linear peptides of protein M of SARS-CoV Urbani [1]: 0.6 | Binding of serum 6 to linear peptides of protein M of SARS-CoV Urbani [1]: 0.4 | Binding of serum 37 to linear peptides of protein M of SARS-CoV Urbani [1]: 0.7 | Binding of serum 62 to linear peptides of protein M of SARS-CoV Urbani [1]: 0.9 | Binding of serum London to linear peptides of protein M of SARS-CoV Urbani [1]: 0.3 | Binding of serum SARS-green to linear peptides of protein M of SARS-CoV Urbani [1]: 0.3 | Binding of serum SARS-yellow to linear peptides of protein M of SARS-CoV Urbani [1]: 0.1 | Recognition of the peptide by sera of SARS-CoV infected individuals, and form (linear, looped/cyclic) in which it is recognized [1]: recognized in looped/cyclic form | Binding of Control Serum Blood-Bank to Looped peptides of the protein M of SARS-CoV Urbani [2]: 0.9 | Binding of Control serum Blood-bank to linear peptides of the protein M of SARS-CoV Urbani [2]: 0.8 | Binding of Control serum LUMC to linear peptides of the protein M of SARS-CoV Urbani [2]: 0.5 | Binding of Control serum LUMC to looped peptides of the protein M of SARS-CoV Urbani [2]: 1.0 | Rabbit serum linear peptides [3]: 0.3 | Rabbit serum looped peptides [3]: 0.3

TIYSHLLLVAAGMEA
Binding of serum 1a to linear peptides of protein X1 of SARS-CoV Urbani [1]: 0.6 | Binding of serum 1a to looped/cyclic peptide (PEPSCAN-ELISA) [1]: 0.5 | Binding of serum 1b to linear peptides of protein X1 of SARS-CoV Urbani [1]: 0.5 | Binding of serum 1b to looped/cyclic peptide (PEPSCAN-ELISA) [1]: 0.4 | Binding of serum 2 to linear peptides of protein X1 of SARS-CoV Urbani [1]: 0.4 | Binding of serum 2 to looped/cyclic peptide (PEPSCAN-ELISA) [1]: 0.3 | Binding of serum 6 to linear peptides of protein X1 of SARS-CoV Urbani [1]: 0.3 | Binding of serum 6 to looped/cyclic peptide (PEPSCAN-ELISA) [1]: 0.3 | Binding of serum 37 to linear peptides of protein X1 of SARS-CoV Urbani [1]: 0.5 | Binding of serum 37 to looped/cyclic peptide (PEPSCAN-ELISA) [1]: 0.5 | Binding of serum 62 to linear peptides of protein X1 of SARS-CoV Urbani [1]: 0.4 | Binding of serum 62 to looped/cyclic peptide (PEPSCAN-ELISA) [1]: 0.5 | Binding of serum London to linear peptides of protein X1 of SARS-CoV Urbani [1]: 0.2 | Binding of serum London to looped/cyclic peptide (PEPSCAN-ELISA) [1]: 0.2 | Binding of serum SARS-green to linear peptides of protein X1 of SARS-CoV Urbani [1]: 0.3 | Binding of serum SARS-green to looped/cyclic peptide (PEPSCAN-ELISA) [1]: 0.2 | Binding of serum SARS-yellow to linear peptides of protein X1 of SARS-CoV Urbani [1]: 0.5 | Binding of serum SARS-yellow to looped/cyclic peptide (PEPSCAN-ELISA) [1]: 0.3 | Binding of Control Serum Blood-Bank to Looped peptides [2]: 0.5 | Binding of Control serum Blood-bank to linear peptides [2]: 0.4 | Binding of Control serum LUMC to linear peptides [2]: 0.4 | Binding of Control serum LUMC to looped peptides [2]: 0.6 | Binding of a rabbit serum to linear peptides [3]: 0.1 | Binding of a rabbit serum to looped peptides [3]: 0.4
